The values that follow come from article PMC1977804, “Somatostatin binding in normal and malignant human gastrointestinal mucosa” (British Journal of Cancer, 1992).

pKd: −log10 of the molar value. Read-outs that look alike come from different tables or passages of the source. Bridges are numbered along the chain shown (N, C = ends). Where no end group is shown, it is not given here. The star is where a group is joined. 125I = [125I]*

Data set [1] relates to somatostatin receptors, rat cerebral cortex membranes. In words: competitive displacement of 125I-tyr-11-somatostatin-14, rat cerebral cortex plasma membranes (positive control). Format: binding, rat (Wistar). An excerpt:
Br. J. Cancer (1992), 66, 391 395 ? Macmillan Press Ltd., 1992~~~~~~~~~~~~~~~~~~~~~~~~~~~~~~~~~~~~~~~~~~~~~~~~~~~~~~~~~~~~~~ Somatostatin binding in normal and malignant human gastrointestinal mucosa G.V. Miller, S.M. Farmery, L.F. Woodhouse & J.N. Primrose University Department of Surgery, St. James's University Hospital, Beckett Street, Leeds LS9 7TF, UK. Summary Somatostatin is a regulatory peptide implicated in the control of cellular proliferation in epithelial tissues and this regulation may occur directly via membrane bound receptor activation. The aim of this study was to investigate somatostatin binding in human gastrointestinal cancer and normal mucosa. Plasma membranes were prepared from specimens of tumour and normal mucosa from 51 patients undergoing surgical resection for malignancy (28 gastric, 23 colorectal). Using a competitive displacement assay, specific '251-tyrosine -1 -somatostatin-14 binding to plasma membranes was assessed and characterised in terms of receptor affinity (Kd) and maximum binding capacity (Bmax) as determined by Scatchard analysis. […] Similar affinity and binding capacity was demonstrable in normal mucosal samples. […] The functional significance of these low affinity binding sites requires elucidation to determine whether long-acting somatostatin analogues may have therapeutic benefit in gastrointestinal malignancy. Hormonal manipulation, by surgical or medical methods, has been used extensively in therapy for carcinoma of the breast, prostate, thyroid and in certain gut endocrine tumours (Horowitz et al., 1975; Higgins et al., 1941; Crile, 1957; Osei et al., 1985). There is, however, no currently defined role for endocrine therapy in non-endocrine gastrointestinal cancer. […] Any benefit from systemic therapy is usually abrogated by systemic toxicity (Rake et al., 1979; Engstrom et al., 1985; Bleiberg, 1990). For this reason a non-toxic, effective, treat- ment modality would be of value to improve the outlook for those patients with advanced disease. There is increasing evidence that tumours arising from the gastrointestinal tract are, at least in part, hormone depen- dent. Numerous hormones have now been implicated in the pathogenesis and development of gastrointestinal malig- nancy, including gastrin, epidermal growth factor, entero- pancreatic hormones and oestrogenic steroids (Sirinek et al., 1985; Watson et al., 1988; Li et al., 1980; Howatson & Carter, 1985; McMichael et al., 1980). […] Somatostatin and its analogues are good candidates for use as endocrine agents in the treatment of gastrointestinal cancer. […]
In general terms: In a radioligand displacement assay an active substance lowers the binding of a labelled ligand.

Data set [2] deals with somatostatin binding sites, human gastric adenocarcinoma membranes. In words: competitive displacement of 125I-tyr-11-somatostatin-14, human gastric adenocarcinoma plasma membranes. An excerpt:
(§1) Br. J. Cancer (1992), 66, 391 395 ? Macmillan Press Ltd., 1992~~~~~~~~~~~~~~~~~~~~~~~~~~~~~~~~~~~~~~~~~~~~~~~~~~~~~~~~~~~~~~ Somatostatin binding in normal and malignant human gastrointestinal mucosa G.V. Miller, S.M. Farmery, L.F. Woodhouse & J.N. Primrose University Department of Surgery, St. James's University Hospital, Beckett Street, Leeds LS9 7TF, UK. Summary Somatostatin is a regulatory peptide implicated in the control of cellular proliferation in epithelial tissues and this regulation may occur directly via membrane bound receptor activation. The aim of this study was to investigate somatostatin binding in human gastrointestinal cancer and normal mucosa. Plasma membranes were prepared from specimens of tumour and normal mucosa from 51 patients undergoing surgical resection for malignancy (28 gastric, 23 colorectal). Using a competitive displacement assay, specific '251-tyrosine -1 -somatostatin-14 binding to plasma membranes was assessed and characterised in terms of receptor affinity (Kd) and maximum binding capacity (Bmax) as determined by Scatchard analysis. […] Similar affinity and binding capacity was demonstrable in normal mucosal samples. […] The functional significance of these low affinity binding sites requires elucidation to determine whether long-acting somatostatin analogues may have therapeutic benefit in gastrointestinal malignancy. Hormonal manipulation, by surgical or medical methods, has been used extensively in therapy for carcinoma of the breast, prostate, thyroid and in certain gut endocrine tumours (Horowitz et al., 1975; Higgins et al., 1941; Crile, 1957; Osei et al., 1985). There is, however, no currently defined role for endocrine therapy in non-endocrine gastrointestinal cancer. […] Any benefit from systemic therapy is usually abrogated by systemic toxicity (Rake et al., 1979; Engstrom et al., 1985; Bleiberg, 1990). For this reason a non-toxic, effective, treat- ment modality would be of value to improve the outlook for those patients with advanced disease. There is increasing evidence that tumours arising from the gastrointestinal tract are, at least in part, hormone depen- dent. Numerous hormones have now been implicated in the pathogenesis and development of gastrointestinal malig- nancy, including gastrin, epidermal growth factor, entero- pancreatic hormones and oestrogenic steroids (Sirinek et al., 1985; Watson et al., 1988; Li et al., 1980; Howatson & Carter, 1985; McMichael et al., 1980). […] Somatostatin and its analogues are good candidates for use as endocrine agents in the treatment of gastrointestinal cancer. The native peptide is widely distributed in the body and, amongst its many inhibitory actions, has a putative role as an anti-proliferative agent in both normal (Lehy et al., 1979) and malignant (Singh et al., 1986) tissue. The mechanisms involved in this anti-proliferative action have not, as yet, been confirmed. Both the native peptide and its analogues act at the somatotrophs of the anterior pituitary suppressing growth hormone production and release (Adrian et al., 1981). This may influence the proliferation of target tissues directly or may result in a substantial reduction in local growth factor release (Kirkegaard et al., 1984). Further, the production of other trophic hormones such as gastrin Correspondence: J.N. Primrose, University Department of Surgery, Clinical Sciences Building, St James's University Hospital, Beckett St, Leeds LS9 7TF, UK. Received 18 November 1991; and in revised form 9 March 1992. and insulin, either from normal cells or from hormonally active tumour cells, could be suppressed by somatostatin (Morris et al., 1988). The most interesting mechanism, how- ever, involves the interaction of the peptide with specific membrane bound receptors upon proliferating cells. […]

Data set [3] deals with somatostatin binding sites, gastric body mucosal plasma membranes. Briefly: competitive displacement of 125I-tyr-11-somatostatin-14, normal gastric body mucosa plasma membranes. On the set-up: species or system human. Conditions: 21 of 28 preparations, including mucosa of the patient with high affinity tumour, Scatchard/LIGAND, pH 7.4, 1 h, 35 °C, median (quartiles). An excerpt:
(§2) Br. J. Cancer (1992), 66, 391 395 ? Macmillan Press Ltd., 1992~~~~~~~~~~~~~~~~~~~~~~~~~~~~~~~~~~~~~~~~~~~~~~~~~~~~~~~~~~~~~~ Somatostatin binding in normal and malignant human gastrointestinal mucosa G.V. Miller, S.M. Farmery, L.F. Woodhouse & J.N. Primrose University Department of Surgery, St. James's University Hospital, Beckett Street, Leeds LS9 7TF, UK. Summary Somatostatin is a regulatory peptide implicated in the control of cellular proliferation in epithelial tissues and this regulation may occur directly via membrane bound receptor activation. The aim of this study was to investigate somatostatin binding in human gastrointestinal cancer and normal mucosa. Plasma membranes were prepared from specimens of tumour and normal mucosa from 51 patients undergoing surgical resection for malignancy (28 gastric, 23 colorectal). Using a competitive displacement assay, specific '251-tyrosine -1 -somatostatin-14 binding to plasma membranes was assessed and characterised in terms of receptor affinity (Kd) and maximum binding capacity (Bmax) as determined by Scatchard analysis. […] Similar affinity and binding capacity was demonstrable in normal mucosal samples. […] The functional significance of these low affinity binding sites requires elucidation to determine whether long-acting somatostatin analogues may have therapeutic benefit in gastrointestinal malignancy. […]

The subject of data set [4] is somatostatin binding sites, normal colonic mucosa plasma membranes. Briefly: competitive displacement of 125I-tyr-11-somatostatin-14, normal colonic mucosa plasma membranes. Conditions: 15 of 23 preparations; Scatchard/LIGAND; pH 7.4, 1 h, 35 °C; median (quartiles). On the set-up: species or system human.
Excerpt: as §2

The test system of data set [5] is somatostatin binding sites, colorectal adenocarcinoma plasma membranes. Briefly: competitive displacement of 125I-tyr-11-somatostatin-14, human colorectal adenocarcinoma plasma membranes. Conditions: for Bmax: Table I, colorectal.
Excerpt: as §1

For data set [6] the following is noted: native peptide; no reference printed for this sentence; cited from earlier work. An excerpt: Br. J. Cancer (1992), 66, 391 395 ? Macmillan Press Ltd., 1992~~~~~~~~~~~~~~~~~~~~~~~~~~~~~~~~~~~~~~~~~~~~~~~~~~~~~~~~~~~~~~ Somatostatin binding in normal and malignant human gastrointestinal mucosa G.V. Miller, S.M. Farmery, L.F. Woodhouse & J.N. Primrose University Department of Surgery, St. James's University Hospital, Beckett Street, Leeds LS9 7TF, UK. Summary Somatostatin is a regulatory peptide implicated in the control of cellular proliferation in epithelial tissues and this regulation may occur directly via membrane bound receptor activation. The aim of this study was to investigate s ...

For orientation: pKd means the negative decadic logarithm of the Kd, by convention in mol/L. On to “125I-tyrosine-11-somatostatin-14 (AGCKNFFWKTY(125I)TSC; disulfide 3-14; ends not checked; UniProt P61278 103-116, looked up, variant F11Y) [125I-tyr-11-somatostatin-14, radioligand made by Chloramine T iodination of tyr-11-somatostatin-14]”, for which the “increase in specific bound counts at 35 °C versus 21 °C” value in data set [1] (35 °C versus room temperature (21 °C)) was 20-30%. Also, in data set [2] (22 of 28 tumours, Scatchard/LIGAND, pH 7.4, 1 h, 35 °C, median (quartiles)), the “Bmax, low affinity binding” value is 1.2 (0.7-5.7) pmol mg-1 protein. For the same substance, in data set [2] (22 of 28 tumours, Scatchard/LIGAND, pH 7.4, 1 h, 35 °C, median (quartiles), read-out: affinity (Kd), low affinity binding), the pKd is 6.77.

Consider somatostatin-14, for which the “Bmax, low affinity high capacity binding” value in data set [3] was 3.9 (1.2-6.6) pmol mg-1 protein; in data set [5] (17 of 23 preparations, Scatchard/LIGAND, pH 7.4, 1 h, 35 °C, median (quartiles)) it was 1.8 (1.2-2.9) pmol mg-1 protein; in data set [5] (abstract, 17 colorectal cancers, Scatchard analysis) it was 1.8 pmol mg-1 protein; in data set [2] (abstract, 22 gastric cancers, Scatchard analysis) it was 1.2 pmol mg-1 protein. Also, the pKd is 6.74 in data set [3] (read-out: Kd, low affinity high capacity binding); 6.89 in data set [4]; 6.85 in data set [5] (abstract, 17 colorectal cancers, Scatchard analysis, read-out: Kd, low affinity binding); 9.04 in data set [1] (Figure 1 inset, single representative experiment, Scatchard plot by LIGAND, read-out: Kd); 9.07 in data set [1] (Scatchard/LIGAND, HEPES-KOH pH 7.4, 1 h, 35 °C, median (range), read-out: receptor affinity (Kd)); 6.78 in data set [2] (Figure 2 inset, single representative experiment, Scatchard plot, read-out: Kd). Besides, the pKd in data set [2] (one gastric carcinoma (one patient), Scatchard/LIGAND, read-out: Kd, high affinity receptors) was 9.05. Also, the Bmax is 0.7 (0.3-3.5) pmol mg-1 protein in data set [4]; 1.72 (1.30-2.69) pmol mg-1 protein in data set [5] (grade Mod, pH 7.4, 1 h, 35 °C, median (quartiles)); 1.81 (0.74-2.87) pmol mg-1 protein in data set [5] (grade Poor, pH 7.4, 1 h, 35 °C, median (quartiles)); 1.75 (0.49-2.99) pmol mg-1 protein in data set [5] (grade Well, pH 7.4, 1 h, 35 °C, median (quartiles)); 2.99 (2.12-3.94) pmol mg-1 protein in data set [5] (site: (R) Colon, pH 7.4, 1 h, 35 °C, median (quartiles)); 1.67 (1.02-2.78) pmol mg-1 protein in data set [5] (site: Rectum, pH 7.4, 1 h, 35 °C, median (quartiles)). Moreover, the Bmax in data set [5] (site: Sigmoid, pH 7.4, 1 h, 35 °C, median (quartiles)) was 0.49 (0.11 -1.75) pmol mg-1 protein; in data set [5] (stage A (Dukes), pH 7.4, 1 h, 35 °C, one sample), 3.40 pmol mg-1 protein; in data set [5] (stage B (Dukes), pH 7.4, 1 h, 35 °C, median (quartiles)), 1.72 (1.30-2.99) pmol mg-1 protein; in data set [5] (stage C (Dukes), pH 7.4, 1 h, 35 °C, median (quartiles)), 1.48 (0.62-2.41) pmol mg-1 protein; in data set [1] (Figure 1 inset, single representative experiment, Scatchard plot by LIGAND), 0.21 pmol mg-1 protein; in data set [2] (Figure 2 inset, single representative experiment, Scatchard plot), 6.1 pmol mg-1 protein. For the same substance, the Bmax is listed as 1.04 (0.23-6.23) pmol mg-1 protein in data set [2] (Table I, gastric, grade Mod, pH 7.4, 1 h, 35 °C, median (quartiles)); 1.17 (0.67-5.71) pmol mg-1 protein in data set [2] (Table I, gastric, grade Poor, pH 7.4, 1 h, 35 °C, median (quartiles)); 5.11 pmol mg-1 protein in data set [2] (Table I, gastric, grade Well, pH 7.4, 1 h, 35 °C, one sample); 1.04 (0.67 -3.36) pmol mg-1 protein in data set [2] (Table I, gastric, site: Antrum, pH 7.4, 1 h, 35 °C, median (quartiles)); 0.83 (0.25 -7.43) pmol mg-1 protein in data set [2] (Table I, gastric, site: Body, pH 7.4, 1 h, 35 °C, median (quartiles)); 1.73 (1.23-5.11) pmol mg-1 protein in data set [2] (Table I, gastric, site: Cardia, pH 7.4, 1 h, 35 °C, median (quartiles)). Moreover, the Bmax in data set [2] (Table I, gastric, stage I (TNM), pH 7.4, 1 h, 35 °C, one sample) is 0.28 pmol mg-1 protein; in data set [2] (Table I, gastric, stage II (TNM), pH 7.4, 1 h, 35 °C, median (quartiles)), 0.79 (0.23-1.04) pmol mg-1 protein; in data set [2] (Table I, gastric, stage III (TNM), pH 7.4, 1 h, 35 °C, median (quartiles)) it was 1.24 (0.77-6.11) pmol mg-1 protein; in data set [2] (Table I, gastric, stage IV (TNM), pH 7.4, 1 h, 35 °C, one sample) it was 6.3 pmol mg-1 protein. The “half life in the circulation” value in data set [6] is “less than 3 min”. The “Bmax, high affinity receptors” value in data set [2] (one gastric carcinoma (one patient), Scatchard/LIGAND) amounted to 0.23 pmol mg-1 protein.
